Measured values published in ChEMBL document CHEMBL5346950, “Development of Biaryl-Containing Aldo-Keto Reductase 1C3 (AKR1C3) Inhibitors for Reversing AKR1C3-Mediated Drug Resistance in Cancer Treatment” (J Med Chem, 2023).

Assays:
[1] = target: T1, Aldo-keto reductase family 1 member C4 (Homo sapiens, UniProt P17516); assay: Inhibition of human recombinant AKR1C4 transfected in Escherichia coli BL21 (DE3) pLysS competent cells using S-tetralol as substrate assessed as inhibition of NADP+ dependent substrate oxidation incubated for 10 mins by fluorescence microplate reader assay
T1 sequence (P17516 whole entry): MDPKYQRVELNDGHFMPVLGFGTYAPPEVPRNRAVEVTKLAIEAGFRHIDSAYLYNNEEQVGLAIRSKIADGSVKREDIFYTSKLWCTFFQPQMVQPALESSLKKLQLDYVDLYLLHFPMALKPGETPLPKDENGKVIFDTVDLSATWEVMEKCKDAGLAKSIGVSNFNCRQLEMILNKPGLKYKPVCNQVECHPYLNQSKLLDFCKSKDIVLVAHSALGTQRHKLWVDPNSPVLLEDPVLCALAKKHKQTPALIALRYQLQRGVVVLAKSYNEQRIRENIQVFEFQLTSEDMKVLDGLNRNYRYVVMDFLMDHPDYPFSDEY

[2] = target: Aldo-keto reductase family 1 member B10 (Homo sapiens, UniProt O60218); assay: Inhibition of AKR1B10 (unknown origin) transfected in Escherichia coli BL21 (DE3) pLysS competent cells using pyridine-3-aldehyde as substrate assessed as inhibition of NADP+ dependent substrate oxidation incubated for 10 mins
Chain of Aldo-keto reductase family 1 member B10 (O60218 whole entry): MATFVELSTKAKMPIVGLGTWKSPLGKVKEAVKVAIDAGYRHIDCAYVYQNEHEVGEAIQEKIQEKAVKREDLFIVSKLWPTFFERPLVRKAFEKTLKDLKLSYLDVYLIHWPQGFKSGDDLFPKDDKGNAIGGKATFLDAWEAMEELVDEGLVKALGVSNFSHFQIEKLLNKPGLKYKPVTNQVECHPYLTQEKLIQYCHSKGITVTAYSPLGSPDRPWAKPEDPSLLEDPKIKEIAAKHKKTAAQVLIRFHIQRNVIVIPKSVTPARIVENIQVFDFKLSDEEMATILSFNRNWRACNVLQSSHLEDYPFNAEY

MCF7 [3] = assay: Antiproliferative activity against human MCF7 cells transfected with AKR1C3 assessed as reduction in cell viability at 100 uM incubated for 72 hrs by MTT assay relative to control; format: functional
[4] = AUC (0 to infinity) in Sprague-Dawley rat at 2 mg/kg, iv measured for 5760 mins by LC-MS/MS analysis; format: ADME, organism-based; set-up: time 5760 min, dose 2 mg/kg, route iv; details: in vivo
[5] = Clearance in Sprague-Dawley rat at 2 mg/kg, iv measured for 5760 mins by LC-MS/MS analysis; format: ADME, organism-based; details: in vivo
[6] = Tmax in Sprague-Dawley rat at 10 mg/kg, IG measured for 5760 mins by LC-MS/MS analysis; format: ADME, organism-based; details: in vivo, po
[7] = AUC (0 to t) in Sprague-Dawley rat at 10 mg/kg, IG measured for 5760 mins by LC-MS/MS analysis; format: ADME, organism-based; set-up: time 5760 min, dose 10 mg/kg, route ig; details: in vivo, po
[8] = AUC (0 to infinity) in Sprague-Dawley rat at 10 mg/kg, IG measured for 5760 mins by LC-MS/MS analysis; format: ADME, organism-based; set-up: dose 10 mg/kg, time 5760 min, route ig; details: in vivo, po, 96 h
[9] = Metabolic stability in liver microsomes (unknown origin) assessed as clearance; format: ADME, Microsome; details: read-out: CLH
[10] = Toxicity in BALB/c nude mouse xenografted with human MCF7 cells expressing AKR1C3 assessed as histopathological changes in kidney at 10 mg/kg, po administered every 2 days for 3 weeks in presence of doxorubicin by H and E staining based analysis; format: organism-based; details: in vivo, 504 h
[11] = Toxicity in BALB/c nude mouse xenografted with human MCF7 cells expressing AKR1C3 assessed as histopathological changes in heart at 10 mg/kg, po administered every 2 days for 3 weeks in presence of doxorubicin by H and E staining based analysis; format: organism-based; details: in vivo, 504 h
[12] = Toxicity in BALB/c nude mouse xenografted with human MCF7 cells expressing AKR1C3 assessed as histopathological changes in liver at 10 mg/kg, po administered every 2 days for 3 weeks by H and E staining based analysis; format: organism-based; details: in vivo, 504 h
[13] = Toxicity in BALB/c nude mouse xenografted with human MCF7 cells expressing AKR1C3 assessed as histopathological changes in kidneys at 10 mg/kg, po administered every 2 days for 3 weeks by H and E staining based analysis; format: organism-based; details: in vivo, 504 h
MCF7 [14] = assay: Synergistic antiproliferative activity against human MCF7 cells overexpressing AKR1C3 assessed as combination index at 10 uM incubated for 72 hrs in presence of doxorubicin at 50 nM by Chou-Talalay method; format: functional
MCF7 [15] = assay: Synergistic antiproliferative activity against human MCF7 cells overexpressing AKR1C3 assessed as combination index at 10 uM incubated for 72 hrs in presence of doxorubicin at 100 nM by Chou-Talalay method; format: functional
MCF7 [16] = assay: Synergistic antiproliferative activity against human MCF7 cells overexpressing AKR1C3 assessed as combination index at 25 uM incubated for 72 hrs in presence of doxorubicin at 20 nM by Chou-Talalay method; format: functional
MCF7 [17] = assay: Synergistic antiproliferative activity against human MCF7 cells overexpressing AKR1C3 assessed as combination index at 25 uM incubated for 72 hrs in presence of doxorubicin at 50 nM by Chou-Talalay method; format: functional
MCF7 [18] = assay: Synergistic antiproliferative activity against human MCF7 cells overexpressing AKR1C3 assessed as combination index at 25 uM incubated for 72 hrs in presence of doxorubicin at 200 nM by Chou-Talalay method; format: functional
MCF7 [19] = assay: Synergistic antiproliferative activity against human MCF7 cells overexpressing AKR1C3 assessed as combination index at 50 uM incubated for 72 hrs in presence of doxorubicin at 100 nM by Chou-Talalay method; format: functional
MCF7 [20] = assay: Synergistic antiproliferative activity against human MCF7 cells overexpressing AKR1C3 assessed as combination index at 50 uM incubated for 72 hrs in presence of doxorubicin at 200 nM by Chou-Talalay method; format: functional
MCF7 [21] = assay: Synergistic antiproliferative activity against human MCF7 cells overexpressing AKR1C3 assessed as dose reduction index for doxorubicin at 10 uM incubated for 72 hrs in presence of doxorubicin at 20 nM by Chou-Talalay method; format: functional
MCF7 [22] = assay: Synergistic antiproliferative activity against human MCF7 cells overexpressing AKR1C3 assessed as dose reduction index for doxorubicin at 10 uM incubated for 72 hrs in presence of doxorubicin at 50 nM by Chou-Talalay method; format: functional
MCF7 [23] = assay: Synergistic antiproliferative activity against human MCF7 cells overexpressing AKR1C3 assessed as dose reduction index for doxorubicin at 10 uM incubated for 72 hrs in presence of doxorubicin at 100 nM by Chou-Talalay method; format: functional
MCF7 [24] = assay: Synergistic antiproliferative activity against human MCF7 cells overexpressing AKR1C3 assessed as dose reduction index for doxorubicin at 10 uM incubated for 72 hrs in presence of doxorubicin at 200 nM by Chou-Talalay method; format: functional
MCF7 [25] = assay: Synergistic antiproliferative activity against human MCF7 cells overexpressing AKR1C3 assessed as dose reduction index for doxorubicin at 50 uM incubated for 72 hrs in presence of doxorubicin at 50 nM by Chou-Talalay method; format: functional
MCF7 [26] = assay: Synergistic antiproliferative activity against human MCF7 cells overexpressing AKR1C3 assessed as dose reduction index for doxorubicin at 50 uM incubated for 72 hrs in presence of doxorubicin at 100 nM by Chou-Talalay method; format: functional
[27] = Octanol-water partition coefficient, logP of the compound; format: physicochemical

Q: What does the source list for `O=C(O)C1(c2ccc(-c3cc(Cl)cc(Cl)c3)c(F)c2)CC1`?
A: IC50 [1]: > 10 µM; IC50 [2]: > 10 µM; Activity (MCF7 [3]): ~37%; AUC(0-inf) [4]: 654 ng·h/mL; clearance [5]: 52.3 mL/min/kg; Tmax [6]: 10 h; AUC(0-t) at 96 h [7]: 1480 ng·h/mL; AUC [8]: 1592.21 ng·h/mL; CLint scaled [9]: 4.17 mL/min/kg; Activity [10]: Non-Toxic; Activity [11]: Non-Toxic; Activity [12]: Non-Toxic; Activity [13]: Non-Toxic; CI (MCF7 [14]): 0.285; CI (MCF7 [15]): 0.326; CI (MCF7 [16]): 0.276; CI (MCF7 [17]): 0.277; CI (MCF7 [18]): 0.274; CI (MCF7 [19]): 0.214; CI (MCF7 [20]): 0.154; Activity_index (MCF7 [21]): 8.47; Activity_index (MCF7 [22]): 7.165; Activity_index (MCF7 [23]): 4.423; Activity_index (MCF7 [24]): 3.821; Activity_index (MCF7 [25]): 22.152; Activity_index (MCF7 [26]): 15.324; logP [27]: 1
